Values of other authors in US20210069187A1, “Stable pharmaceutical composition of Selexipag” (RK Pharma Solutions LLC, priority 2019, published 2021).

What was measured:
[1] = not given; remark: listed apart in the source

Compound: CC(C)N(CCCCOCC(=O)NS(C)(=O)=O)c1cnc(-c2ccccc2)c(-c2ccccc2)n1 [Selexipag, 2-{4-[N-(5,6-diphenylpyrazin-2-yl)-N-isopropylamino]butyloxy}-N-(methylsulfonyl)acetamide]
- stability in the solid state: very stable
- hygroscopicity (solid state): not hygroscopic
- light sensitivity (solid state): not light sensitive
- solubility in water [1]: practically insoluble
